This series is described as follows: Kinetic solubility analysis (CLND: total chemiluminescent nitrogen determination). As to conditions: 1.0% DMSO, 24-hour incubation at ambient temperature, maximum theoretical concentration 100 μM; for pH 2 solubility: 0.1N HCl; for pH 7 solubility: 1×PBS buffer (pH 7.4).

The text below walks through data of US12084467B2, “Therapeutic compounds for HIV virus infection” (Gilead Sciences, Inc., priority 2021, dated 2024).

On to `CC(C)(C#Cc1ccc(-c2ccc(Cl)c3c(N(C(=O)N4CCC(C(=O)O)CC4)S(C)(=O)=O)nn(CC(F)(F)F)c23)c([C@H](Cc2cc(F)cc(F)c2)NC(=O)Cn2nc(C(F)(F)F)c3c2C(F)(F)[C@@H]2C[C@H]32)n1)S(C)(=O)=O` [Compound 25, 1-((4-chloro-7-(2-((S)-1-(2-((3bS,4aR)-5,5-difluoro-3-(trifluoromethyl)-3b,4,4a,5-tetrahydro-1H-cyclopropa[3,4]cyclopenta[1,2-c]pyrazol-1-yl)acetamido)-2-(3,5-difluorophenyl)ethyl)-6-(3-methyl-3-(methylsulfonyl)but-1-yn-1-yl)pyridin-3-yl)-1-(2,2,2-trifluoroethyl)-1H-indazol-3-yl)(methylsulfonyl)carbamoyl)piperidine-4-carboxylic acid], for which the “pH 2 solubility” value was found to be 1 μM and the “pH 7 solubility” value stood at 19 μM.
For `CC(C)(C#Cc1ccc(-c2ccc(Cl)c3c(N(C(=O)N4CCC[C@H]4CN)S(C)(=O)=O)nn(CC(F)(F)F)c23)c([C@H](Cc2cc(F)cc(F)c2)NC(=O)Cn2nc(C(F)(F)F)c3c2C(F)(F)[C@@H]2C[C@H]32)n1)S(C)(=O)=O` [Compound 31, (S)-2-(aminomethyl)-N-(4-chloro-7-(2-((S)-1-(2-((3bS,4aR)-5,5-difluoro-3-(trifluoromethyl)-3b,4,4a,5-tetrahydro-1H-cyclopropa[3,4]cyclopenta[1,2-c]pyrazol-1-yl)acetamido)-2-(3,5-difluorophenyl)ethyl)-6-(3-methyl-3-(methylsulfonyl)but-1-yn-1-yl)pyridin-3-yl)-1-(2,2,2-trifluoroethyl)-1H-indazol-3-yl)-N-(methylsulfonyl)pyrrolidine-1-carboxamide], in that order: 61 μM and 14 μM.
`CN1CCN(C(=O)N(c2nn(CC(F)(F)F)c3c(-c4ccc(C#CC(C)(C)S(C)(=O)=O)nc4[C@H](Cc4cc(F)cc(F)c4)NC(=O)Cn4nc(C(F)(F)F)c5c4C(F)(F)[C@@H]4C[C@H]54)ccc(Cl)c23)S(C)(=O)=O)CC1` [Compound 1, N-(4-chloro-7-(2-((S)-1-(2-((3bS,4aR)-5,5-difluoro-3-(trifluoromethyl)-3b,4,4a,5-tetrahydro-1H-cyclopropa[3,4]cyclopenta[1,2-c]pyrazol-1-yl)acetamido)-2-(3,5-difluorophenyl)ethyl)-6-(3-methyl-3-(methylsulfonyl)but-1-yn-1-yl)pyridin-3-yl)-1-(2,2,2-trifluoroethyl)-1H-indazol-3-yl)-4-methyl-N-(methylsulfonyl)piperazine-1-carboxamide]: the “pH 2 solubility” value stood at 39 μM and the “pH 7 solubility” value came out at 1 μM.
For `CC(C)(C#Cc1ccc(-c2ccc(Cl)c3c(N(C(=O)[C@H]4C[C@H]4C(=O)O)S(C)(=O)=O)nn(CC(F)(F)F)c23)c([C@H](Cc2cc(F)cc(F)c2)NC(=O)Cn2nc(C(F)(F)F)c3c2C(F)(F)[C@@H]2C[C@H]32)n1)S(C)(=O)=O` [Compound 17, (1R,2S)-2-((4-chloro-7-(2-((S)-1-(2-((3bS,4aR)-5,5-difluoro-3-(trifluoromethyl)-3b,4,4a,5-tetrahydro-1H-cyclopropa[3,4]cyclopenta[1,2-c]pyrazol-1-yl)acetamido)-2-(3,5-difluorophenyl)ethyl)-6-(3-methyl-3-(methylsulfonyl)but-1-yn-1-yl)pyridin-3-yl)-1-(2,2,2-trifluoroethyl)-1H-indazol-3-yl)(methylsulfonyl)carbamoyl)cyclopropane-1-carboxylic acid], in that order: 3/3 μM and 3/3 μM.
As for `CC(C)(C#Cc1ccc(-c2ccc(Cl)c3c(N(C(=O)C4CN(C(=N)N)C4)S(C)(=O)=O)nn(CC(F)(F)F)c23)c([C@H](Cc2cc(F)cc(F)c2)NC(=O)Cn2nc(C(F)(F)F)c3c2C(F)(F)[C@@H]2C[C@H]32)n1)S(C)(=O)=O` [Compound 6, 1-carbamimidoyl-N-(4-chloro-7-(2-((S)-1-(2-((3bS,4aR)-5,5-difluoro-3-(trifluoromethyl)-3b,4,4a,5-tetrahydro-1H-cyclopropa[3,4]cyclopenta[1,2-c]pyrazol-1-yl)acetamido)-2-(3,5-difluorophenyl)ethyl)-6-(3-methyl-3-(methylsulfonyl)but-1-yn-1-yl)pyridin-3-yl)-1-(2,2,2-trifluoroethyl)-1H-indazol-3-yl)-N-(methylsulfonyl)azetidine-3-carboxamide], the “pH 2 solubility” value was 15 μM and the “pH 7 solubility” value worked out at 9 μM.
For `CC(C)(C#Cc1ccc(-c2ccc(Cl)c3c(N(C(=O)[C@H]4C[C@H](N)C4)S(C)(=O)=O)nn(CC(F)(F)F)c23)c([C@H](Cc2cc(F)cc(F)c2)NC(=O)Cn2nc(C(F)(F)F)c3c2C(F)(F)[C@@H]2C[C@H]32)n1)S(C)(=O)=O` [Compound 7, (trans)-3-amino-N-(4-chloro-7-(2-((S)-1-(2-((3bS,4aR)-5,5-difluoro-3-(trifluoromethyl)-3b,4,4a,5-tetrahydro-1H-cyclopropa[3,4]cyclopenta[1,2-c]pyrazol-1-yl)acetamido)-2-(3,5-difluorophenyl)ethyl)-6-(3-methyl-3-(methylsulfonyl)but-1-yn-1-yl)pyridin-3-yl)-1-(2,2,2-trifluoroethyl)-1H-indazol-3-yl)-N-(methylsulfonyl)cyclobutane-1-carboxamide], in that order: 70 μM and 1 μM.
Consider `CC(C)(C#Cc1ccc(-c2ccc(Cl)c3c(N(C(=O)C4CNC4)S(C)(=O)=O)nn(CC(F)(F)F)c23)c([C@H](Cc2cc(F)cc(F)c2)NC(=O)Cn2nc(C(F)(F)F)c3c2C(F)(F)[C@@H]2C[C@H]32)n1)S(C)(=O)=O` [Compound 5, N-(4-chloro-7-(2-((S)-1-(2-((3bS,4aR)-5,5-difluoro-3-(trifluoromethyl)-3b,4,4a,5-tetrahydro-1H-cyclopropa[3,4]cyclopenta[1,2-c]pyrazol-1-yl)acetamido)-2-(3,5-difluorophenyl)ethyl)-6-(3-methyl-3-(methylsulfonyl)but-1-yn-1-yl)pyridin-3-yl)-1-(2,2,2-trifluoroethyl)-1H-indazol-3-yl)-N-(methylsulfonyl)azetidine-3-carboxamide], for which the “pH 2 solubility” value is 34 μM and the “pH 7 solubility” value was determined as 1 μM.
For `CC(C)(C#Cc1ccc(-c2ccc(Cl)c3c(N(C(=O)N4CCC(N5CCCCC5)CC4)S(C)(=O)=O)nn(CC(F)(F)F)c23)c([C@H](Cc2cc(F)cc(F)c2)NC(=O)Cn2nc(C(F)(F)F)c3c2C(F)(F)[C@@H]2C[C@H]32)n1)S(C)(=O)=O` [Compound 2, N-(4-chloro-7-(2-((S)-1-(2-((3bS,4aR)-5,5-difluoro-3-(trifluoromethyl)-3b,4,4a,5-tetrahydro-1H-cyclopropa[3,4]cyclopenta[1,2-c]pyrazol-1-yl)acetamido)-2-(3,5-difluorophenyl)ethyl)-6-(3-methyl-3-(methylsulfonyl)but-1-yn-1-yl)pyridin-3-yl)-1-(2,2,2-trifluoroethyl)-1H-indazol-3-yl)-N-(methylsulfonyl)-[1,4′-bipiperidine]-1′-carboxamide], in that order: 17 μM and 1 μM.
For `CC(C)(C#Cc1ccc(-c2ccc(Cl)c3c(N(C(=O)[C@H]4C[C@H](NC(=O)C(=O)O)C4)S(C)(=O)=O)nn(CC(F)(F)F)c23)c([C@H](Cc2cc(F)cc(F)c2)NC(=O)Cn2nc(C(F)(F)F)c3c2C(F)(F)[C@@H]2C[C@H]32)n1)S(C)(=O)=O` [Compound 8], the “pH 2 solubility” value is recorded as <1/1 μM and the “pH 7 solubility” value is <1/1 μM.
